Data from publication PMC10382516, “Exploring ND-011992, a quinazoline-type inhibitor targeting quinone reductases and quinol oxidases” (Scientific Reports, 2023).

Columns and labels:
[1] = test system: NADH oxidase activity of membranes from E. coli strain BL21*Δcyo; assay: NADH oxidase activity of E. coli BL21*Δcyo cytoplasmic membranes (Clark-type oxygen electrode); format: biochemical, Escherichia coli
Experimental: (§1) The inhibitory effect of ND-011992 on the NADH oxidase activity of membranes from E. coli strain BL21*Δcyo was determined. This activity is mainly mediated by the primary NADH dehydrogenases and the terminal oxidases. Strain BL21*Δcyo chromosomally lacks the bo3-oxidase and contains the homologous bd-I and bd-II oxidases as the only terminal oxidases. BL21*Δcyo was grown in full medium, cells were harvested and disrupted and cytoplasmic membranes were prepared by differential centrifugation. With NADH as substrate, electrons might enter the respiratory chain either via complex I or via the alternative, non-energy converting NADH dehydrogenase, NDH-II. […] Second, deamino-NADH (d-NADH) was used as substrate to determine the d-NADH oxidase activity of BL21*Δcyo membranes. d-NADH is a substrate specific for complex I preventing electron entry to the respiratory chain via NDH-II[15],[16]. […] The shift of the IC50 in dependence from the substrate already indicates a high-affinity inhibition of respiratory complex I by ND-011992.
(§2) The (d-)NADH oxidase activity of cytoplasmic membranes was determined with an Clark-type oxygen electrode (Oxyview System, Hansatech Instruments) at 30 °C[19]. […] The non-enzymatic reaction was determined after formation of a stable baseline. […] The protein concentration of membranes were determined by the biuret-method[32]. […]

[2] = test system: d-NADH oxidase activity of BL21*Δcyo membranes; assay: d-NADH oxidase activity of E. coli BL21*Δcyo cytoplasmic membranes; format: biochemical, Escherichia coli; settings: d-NADH as substrate, 30 °C
Experimental: as §1, §2

[3] = target: respiratory complex I (Escherichia coli, UniProt P0AFC7+P0AFD4+P33599); assay: d-NADH:decyl-ubiquinone oxidoreductase activity of E. coli CBO cytoplasmic membranes; format: biochemical; settings: 1 mM KCN
[4] = target: T1, E. coli bd-I oxidase (Escherichia coli, UniProt P0ABJ9); assay: Duroquinol:oxygen oxidoreductase activity of isolated bd-I oxidase; format: biochemical
T1 construct: His-tag; made in house; host or cells: E. coli BL21*Δcyo/pET28b(+)::cydAhisBX
Experimental: (§3) E. coli bd-I oxidase was isolated from strain BL21*Δcyo/pET28b( +)::cydAhisBX[13], bd-II oxidase from strain BL21*Δcyo/pET28b( +)::appChisBX[19] and bo3 oxidase from strain BL21*Δcyo/pET28b( +)::cyoAhisBCD (see ‘Methods’). The index “his” indicates the subunit of the enzyme complexes decorated with a His-tag. All strains were grown under oxic conditions in full medium. Cells were harvested and disrupted and cytoplasmic membranes were prepared by differential centrifugation. Membrane proteins were extracted with the detergent lauryl maltose neopentyl glycol (LMNG) and purified to homogeneity by affinity-, anion exchange- and size exclusion-chromatography (see Supplementary Figs. S7–S9).
(§4) The affinity of ND-011992 towards the isolated oxidases was determined by its inhibition of the duroquinol:oxygen oxidoreductase activity measured as decrease of oxygen concentration. […] Thus, there is a significant two-fold difference in binding of ND-011992 towards the two homologous oxidases. Furthermore, the IC50 is higher than that to respiratory complex I, showing that the compound binds better to complex I than to bd-I and to bd-II oxidase. Incorporation of bromine to the compound led to significant changes of inhibition.
(§5) The duroquinol:oxygen oxidoreductase activity of isolated E. coli bd-I, bd-II and bo3 oxidase was determined by monitoring the oxygen consumption with a Clark-type oxygen electrode (Oxyview System, Hansatech Instruments)[20],[33]. All steps were conducted at 30 °C. The reaction chamber was filled with 2 mL 20 mM MOPS, 20 mM NaCl, 0.003% LMNG, pH 7.0. After formation of a stable baseline, 10 μL dithiothreitol (DTT) (1 M) and 5 μL duroquinone in ethanol (100 mM) were added and incubated for 1 min. The non-enzymatic reaction rate was determined. 10 μL enzyme in LMNG (2 mg/mL) were added to start the reaction. The rates were corrected for the non-enzymatic reaction. After 1 min, the reaction was inhibited by adding various amounts (0.01–50 µM) of ND-011992 and 2, respectively. Each data point was measured in triplicates. The standard deviation of each measurement is provided.

[5] = target: T2, E. coli bd-II oxidase (Escherichia coli, UniProt P26459); assay: Duroquinol:oxygen oxidoreductase activity of isolated bd-II oxidase; format: biochemical
T2 construct: His-tag; made in house; host or cells: E. coli BL21*Δcyo/pET28b(+)::appChisBX
Experimental: as §3, §4, §5

[6] = target: T3, E. coli bo3 oxidase (Escherichia coli, UniProt P0ABI8); assay: Duroquinol:oxygen oxidoreductase activity of isolated bo3 oxidase; format: biochemical
T3 construct: made in house; host or cells: E. coli BL21*Δcyo/pET28b(+)::cyoAhisBCD
Experimental: as §3
Because it was claimed that ND-011992 is an inhibitor specific for bd oxidases, we also determined its IC50 towards the isolated bo3 oxidase. As bd oxidases, bo3 oxidase is also a quinol oxidase.
The duroquinol:oxygen oxidoreductase activity of isolated E. coli bd-I, bd-II and bo3 oxidase was determined by monitoring the oxygen consumption with a Clark-type oxygen electrode (Oxyview System, Hansatech Instruments)[20],[33]. All steps were conducted at 30 °C. The reaction chamber was filled with 2 mL 20 mM MOPS, 20 mM NaCl, 0.003% LMNG, pH 7.0. […] The non-enzymatic reaction rate was determined. […] Each data point was measured in triplicates. […]

[7] = target: mitochondrial complex I (Bos taurus, UniProt P03887+P17694+P42026); format: biochemical, bovine
[8] = set-up: method as in PMID 33283973; settings: as mentioned in the original publication; cited from earlier work

T2 sequence (P26458 whole entry): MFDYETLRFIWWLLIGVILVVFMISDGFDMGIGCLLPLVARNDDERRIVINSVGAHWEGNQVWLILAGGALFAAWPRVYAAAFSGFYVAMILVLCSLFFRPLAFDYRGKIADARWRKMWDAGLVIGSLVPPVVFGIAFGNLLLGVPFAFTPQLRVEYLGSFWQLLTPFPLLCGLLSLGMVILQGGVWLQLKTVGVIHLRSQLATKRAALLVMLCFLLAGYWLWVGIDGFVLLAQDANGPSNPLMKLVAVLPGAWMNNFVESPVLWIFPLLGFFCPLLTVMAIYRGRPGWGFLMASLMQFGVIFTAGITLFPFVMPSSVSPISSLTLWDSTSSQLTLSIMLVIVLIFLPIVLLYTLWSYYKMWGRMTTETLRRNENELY
T2 sequence (P24244 whole entry, further chain): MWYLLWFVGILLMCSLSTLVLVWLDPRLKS
T2 sequence (P26459 whole entry): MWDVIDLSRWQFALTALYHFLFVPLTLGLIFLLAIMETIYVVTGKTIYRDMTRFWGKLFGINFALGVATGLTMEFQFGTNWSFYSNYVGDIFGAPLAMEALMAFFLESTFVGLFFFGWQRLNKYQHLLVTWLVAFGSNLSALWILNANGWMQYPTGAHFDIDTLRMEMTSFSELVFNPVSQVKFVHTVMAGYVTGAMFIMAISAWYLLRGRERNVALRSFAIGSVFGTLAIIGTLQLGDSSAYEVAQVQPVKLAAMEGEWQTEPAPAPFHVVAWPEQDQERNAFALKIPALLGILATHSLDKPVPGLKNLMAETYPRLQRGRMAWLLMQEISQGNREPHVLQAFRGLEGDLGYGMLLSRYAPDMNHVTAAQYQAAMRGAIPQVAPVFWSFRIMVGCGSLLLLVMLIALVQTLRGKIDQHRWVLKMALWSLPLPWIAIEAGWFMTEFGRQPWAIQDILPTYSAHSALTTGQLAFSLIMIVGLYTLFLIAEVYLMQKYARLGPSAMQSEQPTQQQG
T1 sequence (P0ABJ9 whole entry): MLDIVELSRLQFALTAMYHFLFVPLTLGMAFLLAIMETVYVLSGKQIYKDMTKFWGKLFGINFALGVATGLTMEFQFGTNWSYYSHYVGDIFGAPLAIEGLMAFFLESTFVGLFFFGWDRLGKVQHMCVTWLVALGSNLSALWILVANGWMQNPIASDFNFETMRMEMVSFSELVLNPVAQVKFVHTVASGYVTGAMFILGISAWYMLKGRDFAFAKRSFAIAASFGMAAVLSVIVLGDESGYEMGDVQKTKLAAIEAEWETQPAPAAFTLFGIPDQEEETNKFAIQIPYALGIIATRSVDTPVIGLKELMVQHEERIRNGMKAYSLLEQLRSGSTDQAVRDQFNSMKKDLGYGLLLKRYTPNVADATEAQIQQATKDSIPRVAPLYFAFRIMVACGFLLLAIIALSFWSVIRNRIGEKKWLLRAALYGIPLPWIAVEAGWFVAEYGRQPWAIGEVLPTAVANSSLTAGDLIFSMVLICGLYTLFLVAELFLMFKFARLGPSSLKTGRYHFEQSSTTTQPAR
T1 sequence (P56100 whole entry, further chain): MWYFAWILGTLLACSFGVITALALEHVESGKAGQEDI
T1 sequence (P0ABK2 whole entry, further chain): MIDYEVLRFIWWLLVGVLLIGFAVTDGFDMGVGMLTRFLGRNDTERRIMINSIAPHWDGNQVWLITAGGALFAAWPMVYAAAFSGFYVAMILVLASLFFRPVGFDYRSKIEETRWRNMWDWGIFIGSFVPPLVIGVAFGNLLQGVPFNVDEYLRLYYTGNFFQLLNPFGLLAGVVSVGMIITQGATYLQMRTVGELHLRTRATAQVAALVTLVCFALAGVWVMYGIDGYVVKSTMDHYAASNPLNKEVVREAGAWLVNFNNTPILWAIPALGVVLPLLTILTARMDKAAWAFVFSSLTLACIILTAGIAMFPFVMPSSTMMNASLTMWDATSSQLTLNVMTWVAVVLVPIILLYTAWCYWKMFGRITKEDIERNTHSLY
T3 sequence (P0ABJ6 whole entry): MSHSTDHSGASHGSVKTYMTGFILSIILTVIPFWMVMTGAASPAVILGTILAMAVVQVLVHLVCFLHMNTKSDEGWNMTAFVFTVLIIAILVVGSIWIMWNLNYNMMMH
T3 sequence (P0ABJ3 whole entry, further chain): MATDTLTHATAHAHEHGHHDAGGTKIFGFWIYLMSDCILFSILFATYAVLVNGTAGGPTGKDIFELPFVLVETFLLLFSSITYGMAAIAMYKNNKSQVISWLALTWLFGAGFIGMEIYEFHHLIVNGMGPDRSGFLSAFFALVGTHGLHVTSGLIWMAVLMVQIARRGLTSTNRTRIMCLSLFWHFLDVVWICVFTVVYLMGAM
T3 sequence (P0ABJ1 25-315, further chain): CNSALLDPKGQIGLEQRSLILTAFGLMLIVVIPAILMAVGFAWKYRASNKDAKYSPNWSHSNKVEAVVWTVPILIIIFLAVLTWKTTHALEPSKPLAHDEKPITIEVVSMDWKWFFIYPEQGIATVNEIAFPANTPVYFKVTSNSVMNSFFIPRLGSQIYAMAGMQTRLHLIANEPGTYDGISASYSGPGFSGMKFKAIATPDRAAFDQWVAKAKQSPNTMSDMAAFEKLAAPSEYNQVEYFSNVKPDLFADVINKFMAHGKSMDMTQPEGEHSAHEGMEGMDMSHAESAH
T3 sequence (P0ABI8 whole entry): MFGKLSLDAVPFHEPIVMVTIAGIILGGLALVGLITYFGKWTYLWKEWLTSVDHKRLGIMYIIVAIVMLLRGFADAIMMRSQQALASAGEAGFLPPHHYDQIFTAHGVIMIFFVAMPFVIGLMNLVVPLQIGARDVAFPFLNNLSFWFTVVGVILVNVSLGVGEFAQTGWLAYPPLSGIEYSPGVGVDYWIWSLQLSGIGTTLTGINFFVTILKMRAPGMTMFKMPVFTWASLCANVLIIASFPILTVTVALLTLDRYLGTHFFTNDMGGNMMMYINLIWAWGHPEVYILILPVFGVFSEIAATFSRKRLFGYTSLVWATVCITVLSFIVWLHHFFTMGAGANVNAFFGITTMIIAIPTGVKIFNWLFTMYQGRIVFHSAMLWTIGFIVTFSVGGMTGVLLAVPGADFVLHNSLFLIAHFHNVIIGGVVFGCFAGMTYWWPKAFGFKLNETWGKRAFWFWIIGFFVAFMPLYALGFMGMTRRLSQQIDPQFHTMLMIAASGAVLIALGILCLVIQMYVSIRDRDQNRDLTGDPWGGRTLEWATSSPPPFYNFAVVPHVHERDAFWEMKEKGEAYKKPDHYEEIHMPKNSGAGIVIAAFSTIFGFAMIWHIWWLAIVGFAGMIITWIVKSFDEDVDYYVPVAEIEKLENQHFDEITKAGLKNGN

Row | SMILES | IC50 ([1]; E. coli BL21*Δcyo membranes, NADH as substrate, 30 °C) | IC50 [2] | IC50 [3] | IC50 [4] | residual activity ([4]; isolated bd-I oxidase, partial inhibition in titration) | IC50 [5] | residual activity ([5]; isolated bd-II oxidase, partial inhibition in titration) | IC50 [6] | residual activity ([6]; isolated bo3 oxidase, partial inhibition in titration) | IC50 [7] | residual activity ([7]; bovine heart mitochondrial membranes, NADH oxidase activity) | pharmacokinetic properties [8] | effect on the NADH oxidase activity of E. coli membranes ([1]; micromolar concentration range)
1 | FC(F)(F)c1ccc(Oc2ccc(Nc3ncnc4ccccc34)cc2)cc1 [ND-011992, N-(4-(4-(trifluoromethyl)phenoxy)phenyl)quinazolin-4-amine] | 430 nM | 260 nM | 120 nM | 630 nM | about 20% | 1300 nM | about 20% | 2470 nM | about 20% | 3.27 µM | about 20% | poor | –
2 | FC(F)(F)c1ccc(Oc2ccc(Nc3ncnc4ccc(Br)cc34)cc2)cc1 [compound 2, 6-bromo-N-(4-(4-(trifluoromethyl)phenoxy)phenyl)quinazolin-4-amine] | – | – | – | 1030 nM | – | 130 nM | – | – | – | – | – | – | no effect
